# Test results taken from patent US6638973B2, “Taxane formulations” (FSU Research Foundation, Inc., priority 2000, dated 2003).
# Like-named read-outs stand apart in the source and are kept apart here.
# Test system: HCT116 cells
# Assay: In vitro cytotoxicity measured by the cell colony formation assay
# Assay type: cell-based
# Conditions: colonies counted after 7 days, read-out: IN VITRO ID 50 (nm) HCT116
# Summary of the method: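 Colony-forming survival was scored 7 days after a 72 h, 37 °C compound exposure followed by washout into fresh medium.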
# [1] = HCT116 colony formation, 72 h drug incubation, Example 10, C-10 ester/C-7 hydroxy taxanes
# [2] = HCT116 colony formation, 72 h drug incubation, Example 5, C-7 ester/C-10 hydroxy taxanes
# [3] = HCT116 cells, 72 h incubation with drug, ID50 = drug concentration producing 50% inhibition of colony formation
Structure (SMILES),IC50 [1] [nM],further results
CC(=O)O[C@@]12CO[C@@H]1C[C@H](O)[C@@]1(C)C(=O)[C@H](OC(=O)C3CC3)C3=C(C)[C@@H](OC(=O)[C@H](O)[C@H](C=C(C)C)NC(=O)c4ccccc4)C[C@@](O)([C@@H](OC(=O)c4ccccc4)C12)C3(C)C (stereo partly drawn) [Compound 0890],< 1,–
CCCC(=O)O[C@H]1C(=O)[C@@]2(C)C([C@H](OC(=O)c3ccccc3)[C@]3(O)C[C@H](OC(=O)[C@H](O)[C@@H](NC(=O)OC(C)(C)C)c4ccoc4)C(C)=C1C3(C)C)[C@]1(OC(C)=O)CO[C@@H]1C[C@@H]2O (stereo partly drawn) [Compound 0999],< 1,–
CCCC(=O)O[C@H]1C[C@H]2OC[C@@]2(OC(C)=O)C2[C@H](OC(=O)c3ccccc3)[C@]3(O)C[C@H](OC(=O)[C@H](O)[C@H](C=C(C)C)NC(=O)OC(C)(C)C)C(C)=C([C@@H](O)C(=O)[C@@]21C)C3(C)C (stereo partly drawn) [Compound 4406],–,IC50 [2]: < 1 nM
CCOC(=O)O[C@H]1C(=O)[C@@]2(C)C([C@H](OC(=O)c3ccccc3)[C@]3(O)C[C@H](OC(=O)[C@H](O)[C@@H](NC(=O)c4cccs4)c4ccco4)C(C)=C1C3(C)C)[C@]1(OC(C)=O)CO[C@@H]1C[C@@H]2O (stereo partly drawn) [Compound 4088],–,IC50 [3]: < 10 nM
COC(=O)O[C@H]1C[C@H]2OC[C@@]2(OC(C)=O)C2[C@H](OC(=O)c3ccccc3)[C@]3(O)C[C@H](OC(=O)[C@H](O)[C@@H](NC(=O)c4ccco4)c4cccs4)C(C)=C([C@@H](O)C(=O)[C@@]21C)C3(C)C (stereo partly drawn) [Compound 4222],–,IC50 [3]: < 1 nM
CCCC(=O)O[C@H]1C[C@H]2OC[C@@]2(OC(C)=O)C2[C@H](OC(=O)c3ccccc3)[C@]3(O)C[C@H](OC(=O)[C@H](O)[C@@H](NC(=O)OC(C)(C)C)c4ccco4)C(C)=C([C@@H](O)C(=O)[C@@]21C)C3(C)C (stereo partly drawn) [Compound 4499],–,IC50 [2]: < 1 nM
CC(=O)O[C@@]12CO[C@@H]1C[C@H](O)[C@@]1(C)C(=O)[C@H](OC(=O)C3CC3)C3=C(C)[C@@H](OC(=O)[C@H](O)[C@@H](NC(=O)OCC(C)C)c4ccsc4)C[C@@](O)([C@@H](OC(=O)c4ccccc4)C12)C3(C)C (stereo partly drawn) [Compound 5011],< 10,–
CCNC(=O)O[C@H]1C(=O)[C@@]2(C)C([C@H](OC(=O)c3ccccc3)[C@]3(O)C[C@H](OC(=O)[C@H](O)[C@@H](NC(=O)OC(C)(C)C)C4CC4)C(C)=C1C3(C)C)[C@]1(OC(C)=O)CO[C@@H]1C[C@@H]2O (stereo partly drawn) [Compound 2757],–,"IC50 (HCT116 cells, colony formation, 72 h incubation with drug, ID50 = drug concentration producing 50% inhibition of colony formation): < 1 nM"
COC(=O)O[C@H]1C[C@H]2OC[C@@]2(OC(C)=O)C2[C@H](OC(=O)c3ccccc3)[C@]3(O)C[C@H](OC(=O)[C@H](O)[C@@H](NC(=O)c4cccs4)c4cccs4)C(C)=C([C@@H](O)C(=O)[C@@]21C)C3(C)C (stereo partly drawn) [Compound 4424],–,IC50 [3]: < 1 nM
C/C=C/C(=O)N[C@@H](c1ccco1)[C@@H](O)C(=O)O[C@H]1C[C@@]2(O)[C@@H](OC(=O)c3ccccc3)C3[C@](C)(C(=O)[C@H](OC(=O)CCC)C(=C1C)C2(C)C)[C@@H](O)C[C@H]1OC[C@@]31OC(C)=O (stereo partly drawn) [Compound 3994],< 1,–
CCC(=O)O[C@H]1C(=O)[C@@]2(C)C([C@H](OC(=O)c3ccccc3)[C@]3(O)C[C@H](OC(=O)[C@H](O)[C@@H](NC(=O)c4ccccc4)c4ccncc4)C(C)=C1C3(C)C)[C@]1(OC(C)=O)CO[C@@H]1C[C@@H]2O (stereo partly drawn) [Compound 0659],< 1,–
COC(=O)O[C@H]1C(=O)[C@@]2(C)C([C@H](OC(=O)c3ccccc3)[C@]3(O)C[C@H](OC(=O)[C@H](O)[C@@H](NC(=O)OC(C)(C)C)C(C)C)C(C)=C1C3(C)C)[C@]1(OC(C)=O)CO[C@@H]1C[C@@H]2O (stereo partly drawn) [Compound 2062],–,IC50 [3]: < 10 nM
CC(=O)O[C@@]12CO[C@@H]1C[C@H](OC(=O)C(C)C)[C@@]1(C)C(=O)[C@H](O)C3=C(C)[C@@H](OC(=O)[C@H](O)[C@@H](NC(=O)OC=C(C)C)c4ccco4)C[C@@](O)([C@@H](OC(=O)c4ccccc4)C12)C3(C)C (stereo partly drawn) [Compound 5989],–,IC50 [2]: < 10 nM
COC(=O)O[C@H]1C[C@H]2OC[C@@]2(OC(C)=O)C2[C@H](OC(=O)c3ccccc3)[C@]3(O)C[C@H](OC(=O)[C@H](O)[C@@H](NC(=O)OCC(C)C)C4CC4)C(C)=C([C@@H](O)C(=O)[C@@]21C)C3(C)C (stereo partly drawn) [Compound 5211],–,IC50 [3]: < 10 nM
CC(=O)O[C@@]12CO[C@@H]1C[C@H](O)[C@@]1(C)C(=O)[C@H](OC(=O)C3CC3)C3=C(C)[C@@H](OC(=O)[C@H](O)[C@@H](NC(=O)OC(C)(C)C)c4ccncc4)C[C@@](O)([C@@H](OC(=O)c4ccccc4)C12)C3(C)C (stereo partly drawn) [Compound 2813],< 1,–
C/C=C/C(=O)N[C@@H](c1ccsc1)[C@@H](O)C(=O)O[C@H]1C[C@@]2(O)[C@@H](OC(=O)c3ccccc3)C3[C@](C)(C(=O)[C@H](O)C(=C1C)C2(C)C)[C@@H](OC(=O)CCC)C[C@H]1OC[C@@]31OC(C)=O (stereo partly drawn) [Compound 5030],–,IC50 [2]: < 1 nM
CC(=O)O[C@@]12CO[C@@H]1C[C@H](O)[C@@]1(C)C(=O)[C@H](OC(=O)C3CC3)C3=C(C)[C@@H](OC(=O)[C@H](O)[C@H](C=C(C)C)NC(=O)OC(C)(C)C)C[C@@](O)([C@@H](OC(=O)c4ccccc4)C12)C3(C)C (stereo partly drawn) [Compound 0838],< 1,–

Structure (SMILES),IC50 [1] [nM],further results
CCC(=O)O[C@H]1C(=O)[C@@]2(C)C([C@H](OC(=O)c3ccccc3)[C@]3(O)C[C@H](OC(=O)[C@H](O)[C@@H](NC(=O)c4ccco4)c4cccs4)C(C)=C1C3(C)C)[C@]1(OC(C)=O)CO[C@@H]1C[C@@H]2O (stereo partly drawn) [Compound 3053],< 1,–
COC(=O)O[C@H]1C[C@H]2OC[C@@]2(OC(C)=O)C2[C@H](OC(=O)c3ccccc3)[C@]3(O)C[C@H](OC(=O)[C@H](O)[C@@H](NC(=O)OC(C)(C)C)c4ccoc4)C(C)=C([C@@H](O)C(=O)[C@@]21C)C3(C)C (stereo partly drawn) [Compound 4434],–,IC50 [3]: < 1 nM
CC(=O)OC12COC1CC(O)C1(C)C(=O)C(OC(=O)c3cccs3)C3=C(C)C(OC(=O)C(O)C(NC(=O)OC(C)(C)C)c4ccccc4)CC(O)(C(OC(=O)c4ccccc4)C21)C3(C)C (stereo not drawn) [Compound 1988],< 10,–
CCOC(=O)O[C@H]1C(=O)[C@@]2(C)C([C@H](OC(=O)c3ccccc3)[C@]3(O)C[C@H](OC(=O)[C@H](O)[C@@H](NC(=O)c4ccncc4)c4cccs4)C(C)=C1C3(C)C)[C@]1(OC(C)=O)CO[C@@H]1C[C@@H]2O (stereo partly drawn) [Compound 3393],–,IC50 [3]: > 50 nM
CCC(=O)O[C@H]1C(=O)[C@@]2(C)C([C@H](OC(=O)c3ccccc3)[C@]3(O)C[C@H](OC(=O)[C@H](O)[C@@H](NC(=O)OC(C)(C)C)c4ccoc4)C(C)=C1C3(C)C)[C@]1(OC(C)=O)CO[C@@H]1C[C@@H]2O (stereo partly drawn) [Compound 0549],< 10,–
CC(=O)O[C@@]12CO[C@@H]1C[C@H](O)[C@@]1(C)C(=O)[C@H](OC(=O)C3CC3)C3=C(C)[C@@H](OC(=O)[C@H](O)[C@@H](NC(=O)c4ccccc4)c4ccoc4)C[C@@](O)([C@@H](OC(=O)c4ccccc4)C12)C3(C)C (stereo partly drawn) [Compound 2826],< 1,–
C/C=C/C(=O)O[C@H]1C(=O)[C@@]2(C)C([C@H](OC(=O)c3ccccc3)[C@]3(O)C[C@H](OC(=O)[C@H](O)[C@@H](NC(=O)OC(C)(C)C)c4ccco4)C(C)=C1C3(C)C)[C@]1(OC(C)=O)CO[C@@H]1C[C@@H]2O (stereo partly drawn) [Compound 2379],< 1,–
CCC(=O)O[C@H]1C(=O)[C@@]2(C)C([C@H](OC(=O)c3ccccc3)[C@]3(O)C[C@H](OC(=O)[C@H](O)[C@@H](NC(=O)c4ccccc4)c4cccnc4)C(C)=C1C3(C)C)[C@]1(OC(C)=O)CO[C@@H]1C[C@@H]2O (stereo partly drawn) [Compound 0647],12,–
C/C=C/C(=O)N[C@@H](c1ccco1)[C@@H](O)C(=O)O[C@H]1C[C@@]2(O)[C@@H](OC(=O)c3ccccc3)C3[C@](C)(C(=O)[C@H](OC(=O)COc4ccccc4)C(=C1C)C2(C)C)[C@@H](O)C[C@H]1OC[C@@]31OC(C)=O (stereo partly drawn) [Compound 6111],–,"IC50 (HCT116 colony formation, 72 h drug incubation, Example 20, C-10 substituted acetate/C-7 hydroxy taxanes): < 1 nM"
CC(=O)OC12COC1CC(O)C1(C)C(=O)C(OC(=O)c3cccs3)C3=C(C)C(OC(=O)C(O)C(NC(=O)OC(C)(C)C)C4CCC4)CC(O)(C(OC(=O)c4ccccc4)C21)C3(C)C (stereo not drawn) [Compound 1970],< 10,–
CCC(=O)O[C@H]1C(=O)[C@@]2(C)C([C@H](OC(=O)c3ccccc3)[C@]3(O)C[C@H](OC(=O)[C@H](O)[C@@H](NC(=O)OC(C)(C)C)c4ccccn4)C(C)=C1C3(C)C)[C@]1(OC(C)=O)CO[C@@H]1C[C@@H]2O (stereo partly drawn) [Compound 0503],< 1,–
CCC(=O)O[C@H]1C[C@H]2OC[C@@]2(OC(C)=O)C2[C@H](OC(=O)c3ccccc3)[C@]3(O)C[C@H](OC(=O)[C@H](O)[C@@H](NC(=O)OC(C)(C)C)c4ccsc4)C(C)=C([C@@H](O)C(=O)[C@@]21C)C3(C)C (stereo partly drawn) [Compound 1424],–,IC50 [2]: < 1 nM
C/C=C/C(=O)N[C@@H](c1ccco1)[C@@H](O)C(=O)O[C@H]1C[C@@]2(O)[C@@H](OC(=O)c3ccccc3)C3[C@](C)(C(=O)[C@H](O)C(=C1C)C2(C)C)[C@@H](OC(=O)C(C)C)C[C@H]1OC[C@@]31OC(C)=O (stereo partly drawn) [Compound 6202],–,IC50 [2]: < 1 nM
CC(=O)O[C@@]12CO[C@@H]1C[C@H](O)[C@@]1(C)C(=O)[C@H](OC(=O)C3CC3)C3=C(C)[C@@H](OC(=O)[C@H](O)[C@@H](NC(=O)c4ccccc4)c4ccncc4)C[C@@](O)([C@@H](OC(=O)c4ccccc4)C12)C3(C)C (stereo partly drawn) [Compound 2855],< 1,–
CC(=O)O[C@@]12CO[C@@H]1C[C@H](OC(=O)CC(C)C)[C@@]1(C)C(=O)[C@H](O)C3=C(C)[C@@H](OC(=O)[C@H](O)[C@@H](NC(=O)OC=C(C)C)c4ccco4)C[C@@](O)([C@@H](OC(=O)c4ccccc4)C12)C3(C)C (stereo partly drawn) [Compound 6131],–,IC50 [2]: < 1 nM
CC(=O)O[C@@]12CO[C@@H]1C[C@H](O)[C@@]1(C)C(=O)[C@H](OC(=O)C3CC3)C3=C(C)[C@@H](OC(=O)[C@H](O)[C@@H](NC(=O)OC(C)C)c4cccs4)C[C@@](O)([C@@H](OC(=O)c4ccccc4)C12)C3(C)C (stereo partly drawn) [Compound 3071],< 1,–
